Target: SidJ (Legionella pneumophila, UniProt Q5ZTK6)
Experiment: biochemical

SidJ, sequence (Q5ZTK6 whole entry, looked up): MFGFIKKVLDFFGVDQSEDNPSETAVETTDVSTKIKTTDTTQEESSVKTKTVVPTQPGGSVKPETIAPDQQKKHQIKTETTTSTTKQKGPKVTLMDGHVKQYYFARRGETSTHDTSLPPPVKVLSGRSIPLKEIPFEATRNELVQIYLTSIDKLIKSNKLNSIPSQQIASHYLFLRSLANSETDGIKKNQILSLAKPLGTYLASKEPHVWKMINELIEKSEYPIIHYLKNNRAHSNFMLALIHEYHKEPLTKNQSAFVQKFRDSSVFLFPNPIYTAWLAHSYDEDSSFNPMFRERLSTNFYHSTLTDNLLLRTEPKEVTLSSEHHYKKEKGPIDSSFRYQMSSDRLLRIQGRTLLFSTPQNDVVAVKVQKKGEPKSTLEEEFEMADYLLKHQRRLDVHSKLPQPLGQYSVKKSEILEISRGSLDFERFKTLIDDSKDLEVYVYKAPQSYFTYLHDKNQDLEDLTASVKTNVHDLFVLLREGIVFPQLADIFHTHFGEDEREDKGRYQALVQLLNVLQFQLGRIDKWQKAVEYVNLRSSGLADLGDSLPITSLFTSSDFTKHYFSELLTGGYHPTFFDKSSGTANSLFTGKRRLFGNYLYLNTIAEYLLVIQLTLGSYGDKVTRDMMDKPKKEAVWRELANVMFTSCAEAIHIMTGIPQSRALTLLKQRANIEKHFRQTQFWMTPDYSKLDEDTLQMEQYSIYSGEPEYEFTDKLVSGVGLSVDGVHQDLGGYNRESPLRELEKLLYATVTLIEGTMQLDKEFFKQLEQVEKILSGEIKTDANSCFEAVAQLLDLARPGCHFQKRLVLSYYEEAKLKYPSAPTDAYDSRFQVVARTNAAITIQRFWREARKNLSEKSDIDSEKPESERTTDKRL

Work on `Nc1ncnc2c1ncn2[C@@H]1O[C@H](COP(=O)(O)OP(=O)(O)OP(=O)(O)O)[C@@H](O)[C@H]1O` [ATP] yielded a Kd of 1450 nM.

From publication PMC6855250 (Nature, 2019)
